Measured values reported in the NIST ThermoML archive (doi:10.1021/je500381c).
Numbers after ± are expanded uncertainties.

Assay: xn = mol fraction of the nth substance listed
Details: for mass density / viscosity: 100 kPa, Liquid; for mass density: Vibrating tube method; for surface tension liquid-gas: Drop volume

OCC1CCCCC1 [cyclohexylmethanol] + CC12CC3CC(C1)CC(C)(C3)C2
Details	mass density, 293.15 K [kg/m3]	mass density, 298.15 K [kg/m3]	mass density, 303.15 K [kg/m3]	mass density, 308.15 K [kg/m3]	mass density, 313.15 K [kg/m3]	surface tension liquid-gas, 298.15 K [mN/m]	viscosity, 293.15 K [mPa·s]	viscosity, 298.15 K [mPa·s]	viscosity, 303.15 K [mPa·s]	viscosity, 308.15 K [mPa·s]
x1 = 0.1002	–	–	–	–	–	28.2 ± 0.16	–	–	–	–
x1 = 0.1027	903.21 ± 0.12	899.59 ± 0.12	895.96 ± 0.12	892.31 ± 0.12	888.65 ± 0.12	–	4.113 ± 0.064	3.615 ± 0.056	3.204 ± 0.05	2.857 ± 0.044
x1 = 0.1995	905.07 ± 0.12	901.44 ± 0.12	897.78 ± 0.12	894.11 ± 0.12	890.42 ± 0.12	28.36 ± 0.16	4.718 ± 0.073	4.111 ± 0.064	3.618 ± 0.056	3.194 ± 0.05
x1 = 0.2996	–	–	–	–	–	28.56 ± 0.16	–	–	–	–
x1 = 0.3012	907.15 ± 0.12	903.51 ± 0.12	899.85 ± 0.12	896.17 ± 0.12	892.47 ± 0.12	–	5.602 ± 0.087	4.827 ± 0.075	4.192 ± 0.065	3.666 ± 0.057
x1 = 0.4004	909.76 ± 0.12	906.13 ± 0.12	902.45 ± 0.12	898.75 ± 0.12	895.03 ± 0.12	28.74 ± 0.16	6.901 ± 0.11	5.842 ± 0.091	5.005 ± 0.078	4.326 ± 0.067
x1 = 0.4973	912.51 ± 0.12	908.85 ± 0.12	905.16 ± 0.12	901.46 ± 0.12	897.73 ± 0.13	28.95 ± 0.16	8.435 ± 0.13	7.114 ± 0.11	5.993 ± 0.093	5.097 ± 0.079
x1 = 0.6008	915.54 ± 0.12	911.97 ± 0.12	908.3 ± 0.12	904.6 ± 0.13	–	29.35 ± 0.16	11.2 ± 0.17	9.121 ± 0.14	7.528 ± 0.12	6.204 ± 0.097
x1 = 0.7002	918.7 ± 0.12	915.07 ± 0.12	911.44 ± 0.13	907.77 ± 0.13	–	29.83 ± 0.17	14.93 ± 0.23	11.9 ± 0.19	9.63 ± 0.15	7.907 ± 0.12
x1 = 0.7892	922.49 ± 0.12	918.88 ± 0.13	915.23 ± 0.13	911.57 ± 0.13	–	–	21.14 ± 0.33	16.63 ± 0.26	13.35 ± 0.21	10.82 ± 0.17
x1 = 0.7999	–	–	–	–	–	30.46 ± 0.17	–	–	–	–
x1 = 0.9	925.92 ± 0.13	922.36 ± 0.13	918.75 ± 0.13	915.12 ± 0.13	–	31.33 ± 0.17	28.69 ± 0.45	22.11 ± 0.35	17.36 ± 0.27	13.92 ± 0.22
x1 = 1	929.76 ± 0.13	926.25 ± 0.13	922.71 ± 0.13	919.14 ± 0.13	–	32.43 ± 0.18	37.75 ± 0.59	28.67 ± 0.45	22.34 ± 0.35	17.57 ± 0.28
